The subject of test [1] is H37Rv Mtb. As to the kind of experiment: Mycobacterial MIC determination by alamar blue assay, KAN with sulfonyl isothiazoles. It counts as cell-based, Mycobacterium tuberculosis. The note with it: KAN MIC in presence of compound at concentration tested (100x IC50 or 20 μM); KAN line = absence of compound.
For test [2], the system named is K204 Mtb. It counts as cell-based, Mycobacterium tuberculosis. The settings on record: for K204 MICKAN: KAN MIC in presence of compound at concentration tested (100x IC50 or 20 μM), KAN line = absence of compound.

The structures appear in SMILES notation.

The values that follow come from US10208000B2, “Eis inhibitors” (priority 2015, dated 2019).

As for `CCN(CC)CCCNC1=NS(=O)(=O)C(c2ccc(C)c(C)c2)=C1C` [Compound 3i], the “H37Rv MICKAN” value in test [1] turned out to be 0.625 µg/mL. Moreover, in test [2], the “reduction in KAN MIC against Mtb K204” value is 8 fold and the “K204 MICKAN” value stood at 1.25 µg/mL.
Regarding `CC1=C(c2ccc(F)cc2)S(=O)(=O)N=C1NCCCN1CCCCC1` [Compound 6b], the “H37Rv MICKAN” value in test [1] came out at 0.625 µg/mL. Further, the “K204 MICKAN” value in test [2] worked out at 2.5 µg/mL.
In the same order, the values of `CC1=C(c2ccc(F)cc2)S(=O)(=O)N=C1NCCCN1CCCCC1C` (stereo not drawn) [Compound 7b] are 0.625 µg/mL and 2.5 µg/mL.
Regarding `CC1=C(c2ccccc2)S(=O)(=O)N=C1NCCCN1CC(C)CC(C)C1` (stereo not drawn) [Compound 8a], in test [1], the “H37Rv MICKAN” value lay within 0.625 to 1.25 µg/mL. The “K204 MICKAN” value in test [2] is 5 µg/mL.
The corresponding values for `CC1=C(c2ccc(C)cc2)S(=O)(=O)N=C1NCCCN1CC(C)CC(C)C1` (stereo not drawn) [Compound 8e] are 0.625 µg/mL and 2.5 to 5 µg/mL.
Turning to `CC1=C(c2ccc(Cl)cc2)S(=O)(=O)N=C1NCCCN1CCc2ccccc2C1` [Compound 11c], the “H37Rv MICKAN” value in test [1] stood at 0.625 µg/mL. Besides, in test [2], the “reduction in KAN MIC against Mtb K204” value was 8 fold and the “K204 MICKAN” value was found to be 1.25 µg/mL.
Turning to `CC1=C(c2ccc(C)cc2)S(=O)(=O)N=C1NCCCN1CCCCCC1` [Compound 12e], in test [1], the “H37Rv MICKAN” value turned out to be 0.625 µg/mL. In test [2], the “K204 MICKAN” value was found to be 2.5 µg/mL.
In the same order, the values of `CC1=C(c2ccccc2)S(=O)(=O)N=C1NCCCN1CCOCC1` [Compound 13a] are 0.625 µg/mL and 2.5 µg/mL.
On to `CC1=C(c2ccc(C)cc2)S(=O)(=O)N=C1NCCCN1CCOCC1` [Compound 13e], for which the “H37Rv MICKAN” value in test [1] was determined as 0.625 µg/mL. For the same compound, in test [2], the “K204 MICKAN” value was 2.5 µg/mL.
In the same order, the values of `CC1=C(c2cccc(Cl)c2)S(=O)(=O)N=C1NCCCN1CCOCC1` [Compound 13g] are 0.625 µg/mL and 2.5 to 5 µg/mL.
In the same order, the values of `CC1=C(c2ccc(C)c(C)c2)S(=O)(=O)N=C1NCCCN1CCOCC1` [Compound 13i] are 0.625 µg/mL and 5 µg/mL.
The corresponding values for `CC1=C(c2ccc(Cl)cc2)S(=O)(=O)N=C1NCCCN1CCN(C)CC1` [Compound 14c] are 0.625 µg/mL and 5 µg/mL.
Turning to `CCCN1CCN(CCCNC2=NS(=O)(=O)C(c3ccc(C)cc3)=C2C)CC1` [Compound 15e], the “H37Rv MICKAN” value in test [1] fell in the range of 0.625 to 1.25 µg/mL. Also, the “K204 MICKAN” value in test [2] came out at 5 µg/mL.
Consider `CCCN1CCN(CCCNC2=NS(=O)(=O)C(c3ccc(C(C)C)cc3)=C2C)CC1` [Compound 15f], for which the “H37Rv MICKAN” value in test [1] is 0.625 to 1.25 µg/mL. Besides, in test [2], the “K204 MICKAN” value was found to be 10 µg/mL.
The corresponding values for `CC1=C(c2ccc(C)c(C)c2)S(=O)(=O)N=C1NCCCN1CCN(C2CCCCC2)CC1` [Compound 17i] are 0.625 to 1.25 µg/mL and 5 µg/mL.
The corresponding values for `CC1=C(c2ccccc2)S(=O)(=O)N=C1NCCN1CCCCC1` [Compound 33a] are 0.625 µg/mL and 5 µg/mL.
The corresponding values for `CC1=C(c2ccc(C)cc2)S(=O)(=O)N=C1NCCN1CCOCC1` [Compound 35e] are 0.625 µg/mL and 5 µg/mL.
Take `CC1=C(c2cccc(Cl)c2)S(=O)(=O)N=C1NCCN1CCOCC1` [Compound 35g]: the “H37Rv MICKAN” value in test [1] was determined as 0.625 µg/mL. In addition, in test [2], the “K204 MICKAN” value was determined as 2.5 µg/mL.
The corresponding values for `CC1=C(c2cccc(Br)c2)S(=O)(=O)N=C1NCCN1CCOCC1` [Compound 35h] are 0.625 µg/mL and 2.5 µg/mL.
In the same order, the values of `CC1=C(c2ccc(C)c(C)c2)S(=O)(=O)N=C1NCCN1CCOCC1` [Compound 35i] are 0.625 µg/mL and 2.5 µg/mL.
In the case of `COc1ccc(C2=C(C)C(NCCN3CCN(C)CC3)=NS2(=O)=O)cc1` [Compound 36d], in test [1], the “H37Rv MICKAN” value is 0.625 µg/mL. Moreover, in test [2], the “K204 MICKAN” value was 2.5 to 5 µg/mL.
The corresponding values for `CCN1CCN(CCNC2=NS(=O)(=O)C(c3ccc(F)cc3)=C2C)CC1` [Compound 37b] are 0.625 µg/mL and 2.5 to 5 µg/mL.
Turning to `CCN1CCN(CCNC2=NS(=O)(=O)C(c3ccc(OC)cc3)=C2C)CC1` [Compound 37d], the “H37Rv MICKAN” value in test [1] lay within 0.625 to 1.25 µg/mL. The “K204 MICKAN” value in test [2] is 5 to 10 µg/mL.
Take `CC1=C(c2ccccc2)S(=O)(=O)N=C1N1CCC(N2CCCCC2)CC1` [Compound 46a]: the “H37Rv MICKAN” value in test [1] lay in the range of 0.625 to 1.25 µg/mL. For the same compound, the “K204 MICKAN” value in test [2] was 10 µg/mL.
Regarding `CC1=C(c2cccc(Br)c2)S(=O)(=O)N=C1N1CCC(N2CCCCC2)CC1` [Compound 46h], the “H37Rv MICKAN” value in test [1] was 0.625 µg/mL. Further, the “K204 MICKAN” value in test [2] stood at 5 µg/mL.
As for `CC1=C(c2ccc(C)c(C)c2)S(=O)(=O)N=C1N1CCC(C(=O)N2CCCC2)CC1` [Compound 52i], in test [1], the “H37Rv MICKAN” value came out at 0.625 µg/mL. In test [2], the “K204 MICKAN” value came out at 2.5 µg/mL.
In the same order, the values of `CCN(CC)C1=NS(=O)(=O)C(c2ccc(F)cc2)=C1C` [Compound 81b] are 0.625 µg/mL and 2.5 to 5 µg/mL.
`CCN(CC)C1=NS(=O)(=O)C(c2cccc(Cl)c2)=C1C` [Compound 81g]: the “H37Rv MICKAN” value in test [1] was 0.625 µg/mL. The “K204 MICKAN” value in test [2] stood at 2.5 µg/mL.
Consider `CC1=C(c2ccc(F)cc2)S(=O)(=O)N=C1NCc1ccco1` [Compound 87b], for which, in test [1], the “H37Rv MICKAN” value worked out at 1.25 µg/mL. For the same compound, the “K204 MICKAN” value in test [2] was found to be 10 µg/mL.
Turning to `CC1=C(c2ccc(F)cc2)S(=O)(=O)N=C1NCc1ccccc1` [Compound 89b], in test [1], the “H37Rv MICKAN” value was 1.25 µg/mL. Further, in test [2], the “K204 MICKAN” value is 10 µg/mL.
For the compound `CC1=C(c2ccc(C)c(C)c2)S(=O)(=O)N=C1NCC(=O)NCc1ccc2c(c1)OCO2` [Compound 115i], the “H37Rv MICKAN” value in test [1] stood at 0.625 µg/mL. Besides, the “K204 MICKAN” value in test [2] stood at 10 µg/mL.
The corresponding values for `CCCNC1=NS(=O)(=O)C(c2ccc(F)cc2)=C1C` [Compound 139b] are 0.625 µg/mL and 10 µg/mL.
In the same order, the values of `CCCNC1=NS(=O)(=O)C(c2ccc(C)cc2)=C1C` [Compound 139e] are 1.25 µg/mL and 10 µg/mL.
In the same order, the values of `CCCNC1=NS(=O)(=O)C(c2ccc(C)c(C)c2)=C1C` [Compound 139i] are 1.25 µg/mL and 10 µg/mL.
As for `NC[C@H]1O[C@H](O[C@H]2[C@H](O)[C@@H](O[C@H]3O[C@H](CO)[C@@H](O)[C@H](N)[C@H]3O)[C@H](N)C[C@@H]2N)[C@H](O)[C@@H](O)[C@@H]1O` [KAN, kanamycin A, reference compound], the “H37Rv MICKAN” value in test [1] came out at 1.25 µg/mL. The “K204 MICKAN” value in test [2] turned out to be 10 µg/mL.
